From ChEMBL document CHEMBL4811265, “Structural understanding of 5-(4-hydroxy-phenyl)-N-(2-(5-methoxy-1H-indol-3-yl)-ethyl)-3-oxopentanamide as a neuroprotectant for Alzheimer's disease” (Bioorg Med Chem Lett, 2021)

assay: Neuroprotective activity in human MC65 cells cultured in TC-deficient medium assessed as inhibition of TC-deficiency induced cell death by measuring increase in cell viability measured after 72 hrs by MTT assay; format: functional, cell-based; conditions: MC65, 72 h

| SMILES | EC50 |
| --- | --- |
| COc1ccc2[nH]cc(CCNC(=O)CC(=O)CCc3ccc(O)cc3)c2c1 | 32.6 nM |
| O=C(/C=C/c1ccc(O)cc1)CC(=O)NCCc1c[nH]c2ccc(O)cc12 | 178 nM |
| COc1ccc2[nH]cc(CCNC(=O)CC(=O)CCc3ccc(F)cc3)c2c1 | 33 nM |
| C#CCOc1ccc2[nH]cc(CCNC(=O)CC(=O)CCc3ccc(O)cc3)c2c1 | 32 nM |
| COc1ccc2[nH]cc(CCNC(=O)CC(=O)/C=C/c3ccc4c(c3)OCO4)c2c1 | > 3000 nM |
| COc1ccc2[nH]cc(CCNC(=O)CC(=O)/C=C/c3ccncc3)c2c1 | > 3000 nM |
| C#CCOc1ccc2[nH]cc(CCNC(=O)CC3(CCc4ccc(O)cc4)N=N3)c2c1 | 26.1 nM |
| COc1ccc2[nH]cc(CCNC(=O)CC3(CCc4ccc(O)cc4)N=N3)c2c1 | 56.2 nM |
| COc1ccc(CCC(=O)CC(=O)NCCc2c[nH]c3ccc(OC)cc23)cc1 | 490 nM |
| [N-]=[N+]=Nc1ccc2[nH]cc(CCNC(=O)CC(=O)CCc3ccc(O)cc3)c2c1 | 16.5 nM |
| COc1ccc2[nH]cc(CCNC(=O)CC(=O)/C=C/c3ccco3)c2c1 | 228 nM |
| Nc1ccc2[nH]cc(CCNC(=O)CC(=O)CCc3ccc(O)cc3)c2c1 | > 3000 nM |
| COc1ccc2[nH]cc(CCNC(=O)CC(=O)/C=C/c3ccoc3)c2c1 | 336 nM |
| COc1ccc2[nH]cc(CCNC(=O)CC(=O)/C=C/c3ccc(N(C)C)cc3)c2c1 | 976 nM |
| O=C(CCc1ccc(O)cc1)CC(=O)NCCc1c[nH]c2ccc([N+](=O)[O-])cc12 | 500 nM |
| O=C(CCc1ccc(O)cc1)CC(=O)NCCc1c[nH]c2ccc(O)cc12 | 364 nM |
| COc1ccc2[nH]cc(CCNC(=O)CC(=O)/C=C/c3cccnc3)c2c1 | > 3000 nM |
| COc1ccc2[nH]cc(CCNC(=O)CC(=O)/C=C/c3ccc(O)cc3)c2c1 | 29 nM |
| COc1ccc(CCC2(CC(=O)NCCc3c[nH]c4ccc(OC)cc34)N=N2)cc1 | > 3000 nM |
| COc1ccc2[nH]cc(CCNC(=O)CC(=O)/C=C/c3ccc(F)cc3)c2c1 | 32.8 nM |
| COc1ccc2[nH]cc(CCNC(=O)C3CCC/C(=C\c4ccc(O)cc4)C3=O)c2c1 (racemic) | 224 nM |
| COc1ccc2[nH]cc(CCNC(=O)C3CC/C(=C\c4ccc(O)cc4)C3=O)c2c1 (racemic) | 127 nM |
| O=C(CC(O)CCc1ccc(O)cc1)NCCc1c[nH]c2ccc(O)cc12 (racemic) | 9.2 nM |
| COc1ccc2[nH]cc(CCNC(=O)C3CCC(Cc4ccc(O)cc4)C3=O)c2c1 (racemic) | > 3000 nM |
| COc1ccc2[nH]cc(CCNC(=O)C3CCCC(Cc4ccc(O)cc4)C3=O)c2c1 (racemic) | > 3000 nM |
